For 20 compounds, EC50 results are on record in patent US20220153754A1 (JANSSEN SCIENCES IRELAND UNLIMITED COMPANY, priority 2019, published 2022).

As a reminder, the EC50 is the concentration at which the effect is half-maximal.

For the experiment, the system named is HBV. The experiment is described as follows: HBV replication inhibition assay (BDNA assay). In kind it is cell-based. To be noted: Hepatitis B virus, HepG2.2.15, 144 h, HepG2.2.15 cells, incubated with compound for 6 days, encapsidated HBV DNA from supernatant detected by branched DNA QuantiGene assay. The protocol:
HBV replication inhibition by the disclosed compounds were determined in cells infected or transfected with HBV or cells with stably integrated HBV, such as HepG2.2.15 cells (Sells et al. 1987). In this example, HepG2.2.15 cells were maintained in cell culture medium containing 10% fetal bovine serum (FBS), Geneticin, L-glutamine, penicillin and streptomycin. HepG2.2.15 cells were seeded in 96-well plates at a density of 40,000 cells/well and were treated with serially diluted compounds at a final DMSO concentration of 0.5% either alone or in combination by adding drugs in a checker box format. Cells were incubated with compounds for three days, after which medium was removed and fresh medium containing compounds was added to cells and incubated for another three days. At day 6, supernatant was removed and treated with DNase at 37° C. for 60 minutes, followed by enzyme inactivation at 75° C. for 15 minutes. Encapsidated HBV DNA was released from the virions and covalently linked HBV polymerase by incubating in lysis buffer (Affymetrix QS0010) containing 2.5 μg proteinase K at 50° C. for 40 minutes. HBV DNA was denatured by addition of 0.2 M NaOH and detected using a branched DNA (BDNA) QuantiGene assay kit according to manufacturer recommendation (Affymetrix). HBV DNA levels were also quantified using qPCR, based on amplification of encapsidated HBV DNA extraction with QuickExtraction Solution (Epicentre Biotechnologies) and amplification of HBV DNA using HBV specific PCR probes that can hybridize to HBV DNA and a fluorescently labeled probe for quantitation. In addition, cell viability of HepG2.2.15 cells incubated with test compounds alone or in combination was determined by using CellTitre-Glo reagent according to the manufacturer protocol (Promega). The mean background signal from wells containing only culture medium was subtracted from all other samples, and percent inhibition at each compound concentration was calculated by normalizing to signals from HepG2.2.15 cells treated with 0.5% DMSO using equation E1.
where DMSOave is the mean signal calculated from the wells that were treated with DMSO control (0% inhibition control) and Xi is the signal measured from the individual wells. EC50 values, effective concentrations that achieved 50% inhibitory effect, were determined by non-linear fitting using Graphpad Prism software (San Diego, Calif.) and equation E2.
where Y represents percent inhibition values and X represents the logarithm of compound concentrations.
Selected disclosed compounds were assayed in the HBV replication assay (BDNA assay), as described above, and a representative group of these active compounds is shown in Table 3.
With `C[C@@H]1Cc2nn3c(c2CN1C(=O)Nc1ccc(F)c(C#N)c1)-c1ncccc1CCC3` [Example 16, (11R)—N-(3-Cyano-4-fluorophenyl)-11-methyl-6,7,10,11-tetrahydro-5H-pyrido[2,3-c]pyrido[4′,3′:3,4]pyrazolo[1,5-a]azepine-12(13H)-carboxamide], the concentration giving a half-maximal response (EC50) worked out at 330 nM.
Consider `N#Cc1cc(NC(=O)N2CCn3nc4c(c3C2)-c2nocc2CCC4)ccc1F` [Example 35, N-(3-Cyano-4-fluorophenyl)-5,6,9,10-tetrahydro-4H-isoxazolo[3″,4″:3′,4′]-cyclohepta[1′,2′:3,4]pyrazolo[1,5-a]pyrazine-11(12H)-carboxamide], for which the EC50 stood at 170 nM.
As to `Cc1nnc2n1CCCn1nc3c(c1-2)CN(C(=O)Nc1ccc(F)c(Cl)c1)CC3` [Example 21, N-(3-Chloro-4-fluorophenyl)-3-methyl-6,7,10,11-tetrahydro-5H-pyrido-[4′,3′:3,4]pyrazolo[1,5-a][1,2,4]triazolo[3,4-c][1,4]diazepine-12(13H)-carboxamide], the EC50 is 2700 nM.
For the compound `Cn1ncc2c1-c1c3c(nn1CCC2)CCN(C(=O)Nc1ccc(F)c(Cl)c1)C3` [Example 30, N-(3-Chloro-4-fluorophenyl)-1-methyl-4,5,6,9,10,12-hexahydropyrazolo[3,4-c]pyrido[4′3′:3,4]pyrazolo[1,5-a]azepine-11(1H)-carboxamide], the EC50 stood at 3400 nM.
On to `C[C@@H]1Cc2nn3c(c2CN1C(=O)Nc1ccc(F)c(C(F)(F)F)c1)-c1oncc1CCC3` [Example 15, (10R)—N-(4-Fluoro-3-(trifluoromethyl)phenyl)-10-methyl-5,6,9,10-tetrahydro-4H-isoxazolo[5,4-c]pyrido[4′,3′:3,4]pyrazolo[1,5-a]azepine-11(12H)-carboxamide], for which the EC50 amounted to 83 nM.
For the compound `O=C(Nc1ccc(F)c(C(F)(F)F)c1)N1CCc2nn3c(c2C1)-c1ncccc1CCC3` [Example 28, N-(4-Fluoro-3-(trifluoromethyl)phenyl)-6,7,10,11-tetrahydro-5H-pyrido[2,3-c]pyrido[4′,3′:3,4]pyrazolo[1,5-a]azepine-12(13H)-carboxamide], the EC50 was 1800 nM.
With `Cc1nnc2n1CCCn1nc3c(c1-2)CN(C(=O)Nc1ccc(F)c(Cl)c1)[C@H](C)C3` [Example 23] the figure was more than 4000 nM.
Regarding `O=C(Nc1ccc(F)c(C(F)(F)F)c1)N1CCc2nn3c(c2C1)-c1nocc1C[C@@H](COCC(F)F)C3` (single isomer, unassigned) [Example 8, (5R*)-5-((2,2-Difluoroethoxy)methyl)-N-(4-fluoro-3-(trifluoromethyl)phenyl)-5,6,9,10-tetrahydro-4H-isoxazolo[3,4-c]pyrido[4′,3′:3,4]pyrazolo[1,5-a]azepine-11(12H)-carboxamide], the EC50 amounted to 26 nM.
For `C=C1Cc2conc2-c2c3c(nn2C1)CCN(C(=O)Nc1ccc(F)c(C(F)(F)F)c1)C3` [Example 2, N-(4-Fluoro-3-(trifluoromethyl)phenyl)-5-methylene-5,6,9,10-tetrahydro-4H-isoxazolo[3,4-c]pyrido[4′,3′:3,4]pyrazolo[1,5-a]azepine-11(12H)-carboxamide], the EC50 was found to be 75 nM.
With `C[C@@H]1Cc2nn3c(c2CN1C(=O)Nc1ccc(F)c(C#N)c1)-c1oncc1CCC3` [Example 14, (10R)—N-(3-Cyano-4-fluorophenyl)-10-methyl-5,6,9,10-tetrahydro-4H-isoxazolo[5,4-c]pyrido[4′,3′:3,4]pyrazolo[1,5-a]azepine-11(12H)-carboxamide], the EC50 turned out to be 59 nM.
With `O=C(Nc1ccc(F)c(C(F)(F)F)c1)N1CCn2nc3c(c2C1)-c1nocc1CCC3` [Example 36, N-(4-Fluoro-3-(trifluoromethyl)phenyl)-5,6,9,10-tetrahydro-4H-isoxazolo[3″,4″:3′,4′]cyclohepta[1′,2′:3,4]pyrazolo[1,5-a]pyrazine-11(12H)-carboxamide], the EC50 is 180 nM.
For `C[C@@H]1Cc2nn3c(c2CN1C(=O)Nc1ccc(F)c(Cl)c1)-c1nncn1CCC3` [Example 22, (R)—N-(3-Chloro-4-fluorophenyl)-11-methyl-6,7,10,11-tetrahydro-5H-pyrido[4′,3′:3,4]pyrazolo[1,5-a][1,2,4]triazolo[3,4-c][1,4]diazepine-12(13H)-carboxamide], the EC50 is more than 4000 nM.
In the case of `N#Cc1cc(NC(=O)N2CCc3nn4c(c3C2)-c2nocc2CC(O)C4)ccc1F` (centres unmarked) [Example 11, N-(3-Cyano-4-fluorophenyl)-5-hydroxy-5,6,9,10-tetrahydro-4H-isoxazolo[3,4-c]pyrido[4′,3′:3,4]pyrazolo[1,5-a]azepine-11(12H)-carboxamide], the EC50 was found to be 43 nM.
With `N#Cc1cc(NC(=O)N2CCc3nn4c(c3C2)-c2n[nH]cc2CCC4)ccc1F` [Example 26, N-(3-Cyano-4-fluorophenyl)-4,5,6,9,10,12-hexahydropyrazolo[3,4-c]pyrido[4′,3′:3,4]pyrazolo[1,5-a]azepine-11(2H)-carboxamide] the figure was 23 nM; with `O=C(Nc1ccc(F)c(C(F)(F)F)c1)N1CCc2nn3c(c2C1)-c1nocc1CC(COCC(F)F)C3` (single isomer, unassigned) [Example 6, (5S*)-5-((2,2-Difluoroethoxy)methyl)-N-(4-fluoro-3-(trifluoromethyl)phenyl)-5,6,9,10-tetrahydro-4H-isoxazolo[3,4-c]pyrido[4′,3′:3,4]pyrazolo[1,5-a]azepine-11(12H)-carboxamide], 45 nM; with `O=C(Nc1ccc(F)c(Cl)c1)N1CCc2nn3c(c2C1)-c1n[nH]cc1CCC3` [Example 25, N-(3-Chloro-4-fluorophenyl)-4,5,6,9,10,12-hexahydropyrazolo[3,4-c]pyrido[4′,3′:3,4]pyrazolo[1,5-a]azepine-11(2H)-carboxamide], 28 nM.
On to `C=C1Cc2cnoc2-c2c3c(nn2C1)CCN(C(=O)Nc1ccc(F)c(C(F)(F)F)c1)C3` [Example 10, N-(4-Fluoro-3-(trifluoromethyl)phenyl)-5-methylene-5,6,9,10-tetrahydro-4H-isoxazolo[5,4-c]pyrido[4′,3′:3,4]pyrazolo[1,5-a]azepine-11(12H)-carboxamide], for which the EC50 came to 350 nM.
As to `N#Cc1cc(NC(=O)N2CCc3nn4c(c3C2)-c2nocc2CC(CO)C4)ccc1F` (centres unmarked) [Example 3, N-(3-Cyano-4-fluorophenyl)-5-(hydroxymethyl)-5,6,9,10-tetrahydro-4H-isoxazolo[3,4-c]pyrido[4′,3′:3,4]pyrazolo[1,5-a]azepine-11(12H)-carboxamide], the EC50 is 23 nM.
Take `O=C(Nc1ccc(F)c(C(F)(F)F)c1)N1CCc2nn3c(c2C1)-c1nocc1CC(CO)C3` (centres unmarked) [Example 4, N-(4-Fluoro-3-(trifluoromethyl)phenyl)-5-(hydroxymethyl)-5,6,9,10-tetrahydro-4H-isoxazolo[3,4-c]pyrido[4′,3′:3,4]pyrazolo[1,5-a]azepine-11(12H)-carboxamide]: the EC50 was 57 nM.
In the case of `N#Cc1cc(NC(=O)N2CCn3nc4c(c3C2)-c2oncc2CCC4)ccc1F` [Example 33, N-(3-Cyano-4-fluorophenyl)-5,6,9,10-tetrahydro-4H-isoxazolo[5″,4″:3′,4′]-cyclohepta[1′,2′:3,4]pyrazolo[1,5-a]pyrazine-11(12H)-carboxamide], the EC50 came out at 790 nM.
